The text below walks through data of publication PMC11790914, “Chemogenomics for steroid hormone receptors (NR3)” (Communications Chemistry, 2025).

The subject of data set [1] is HEK293T cells. Nature of the data set: Cytotoxicity: necrosis induction (red fluorescent dye for permeable plasma membranes).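 Also: compounds applied in DMEM high glucose with 0.1% FCS and 0.1% DMSO, necrotic HEK293T cells counted by red staining of cells whose plasma membranes had become permeable.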 The data set is classed as cell-based. The settings on record: 24 h, necrotic cell count normalized to 0.1% DMSO, single replicates.
The test system of another data set is Gal4-VP16. The data set is classed as cell-based. The settings on record: for VP16 control [fold reporter gene activity]: vs. DMSO ctrl, single replicates n=1-3.
The target in a further data set is T1, GSK3B (Homo sapiens, UniProt P49841).
T1 construct: made in house
T1 sequence (P49841 whole entry, species assumed): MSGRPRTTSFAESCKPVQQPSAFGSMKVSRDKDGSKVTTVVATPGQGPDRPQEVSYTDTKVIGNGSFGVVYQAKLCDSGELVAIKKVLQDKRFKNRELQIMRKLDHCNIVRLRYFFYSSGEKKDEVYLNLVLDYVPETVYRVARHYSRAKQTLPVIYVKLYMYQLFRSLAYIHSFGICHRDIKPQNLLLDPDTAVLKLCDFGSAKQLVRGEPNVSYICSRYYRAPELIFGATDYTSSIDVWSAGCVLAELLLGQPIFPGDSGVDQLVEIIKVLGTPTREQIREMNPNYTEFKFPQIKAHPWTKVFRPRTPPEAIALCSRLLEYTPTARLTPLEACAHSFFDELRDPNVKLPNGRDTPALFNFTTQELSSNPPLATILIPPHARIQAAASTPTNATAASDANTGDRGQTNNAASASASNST
The data set can be described thus: Liability panel screening by DSF: GSK3B. Type of data set: binding. The settings on record: DSF, 20 µM, n=2; for ΔTm at 20 µM: read-out: Mean ΔTM GSK3B.

Another data set concerns the target T2, BRPF1 (Homo sapiens, UniProt P55201).
T2 construct: This panel comprised ten highly ligandable kinases and bromodomains; made in house
T2 sequence (P55201 628-732 limits assumed): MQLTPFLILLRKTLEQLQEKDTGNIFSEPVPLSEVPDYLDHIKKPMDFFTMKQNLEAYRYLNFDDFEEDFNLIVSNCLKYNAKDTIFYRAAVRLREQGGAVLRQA
The data set can be described thus: Liability panel screening by DSF: BRPF1. Type of data set: binding. The settings on record: DSF, 20 µM, n=2; for ΔTm at 20 µM: read-out: Mean ΔTM BRPF1. The procedure, abridged: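 Recombinant protein at 2 µM in 10 mM HEPES pH 7.5 with 500 mM NaCl was mixed with SYPRO Orange (1:1000) and heated at 3 °C/min up to 85 °C. Tm was taken as the Boltzmann-fit inflection point. Shifts are ∆Tm in K from technical duplicates.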
A general note: In DSF a fluorescence change marks the thermal transition of the protein.

In another data set the test system is NR3A1 (ERα). The settings on record: cited from earlier work; for IC50: read-out: Potency [nM] IC50, NR3A1 (ERα).
In data set [2] the test system is HEK293T cells. The data set can be described thus: Evaluation of cytotoxicity (overall: growth-rate, metabolic activity, apoptosis, necrosis). The settings on record: 24 h; for effects on growth-rate, metabolic activity and necrosis: HEK293T, budesonide (3 µM), others at tested concentration. Type of data set: cell-based. How it is done:
The selection of 40 CG candidates was acquired from commercial vendors (purity ≥95%) and applied to initial toxicity screening. Cytotoxicity was determined in HEK293T cells considering growth-rate, metabolic activity as well as apoptosis and/or necrosis induction to evaluate suitability of the compounds for CG application in cellular settings (Fig. 3a–d, Supplementary Fig. 1, Supplementary Data 1). The candidates were generally well tolerated at concentrations >>EC50/IC50 that we recommend for CG application with only four compounds showing mild toxic effects. […] In terms of cytotoxicity, all candidates thus appeared suitable for inclusion in an NR3 CG set.

Several values for one entry are separate records, joined by “and”; a condition that tells them apart may be missing. Equal values may be shown once. Read-outs that look alike come from different tables or passages of the source.

With `CC/C(=C(\c1ccc(O)cc1)c1ccc(OCCN(C)C)cc1)c1ccccc1` [(Z)-4-Hydroxytamoxifen], the “Necrosis induction [NI]” value with HEK293T cells [1] (0.3 µM) was 0.97 and 1.43 and 0.88 and 1.20; in the data set on HEK293T cells [1] (3 µM) it was 1.55 and 1.35 and 1.14 and 1.44. The “VP16 control [fold reporter gene activity]” value with Gal4-VP16 (0.3 µM) is 1.09 fold reporter gene activity and 0.88 fold reporter gene activity and 1.33 fold reporter gene activity; in the data set on Gal4-VP16 (3 µM), 1.11 fold reporter gene activity and 1.04 fold reporter gene activity and 1.49 fold reporter gene activity. Also, the ΔTm (usually the change in melting temperature against a reference sample) at 20 µM was -1.45 °C on GSK3B and -1.98 °C on BRPF1. Further, in the data set on NR3A1 (ERα), the IC50 (commonly the midpoint of a concentration-inhibition curve) was 2 ± 1 nM.
As for `CC/C(=C(/c1ccc(/C=C/C(=O)O)cc1)c1ccc2[nH]ncc2c1)c1ccc(F)cc1Cl` [ARN810], in the data set with Gal4-VP16 (1 µM, replicate n=1), the “VP16 control [fold reporter gene activity] (n=3), n=1” value was found to be 1.06 fold. Further, the “VP16 control [fold reporter gene activity] (n=3), n=2” value with Gal4-VP16 (1 µM, replicate n=2) is given as 1.05 fold. Moreover, in the data set with Gal4-VP16 (1 µM, replicate n=3), the “VP16 control [fold reporter gene activity] (n=3), n=3” value amounted to 1.02 fold. Moreover, the ΔTm at 20 µM at GSK3B is 3.37 °C; at BRPF1, 0 °C. In the data set on NR3A1 (ERα) ((lit.), ref Supplementary Table 1), the IC50 is 6 nM. For the same compound, the “rel. activity from literature, NR3A1 (ERα): % ERα remaining” value in the data set on NR3A1 (ERα) (ERα remaining (degrader), ref Supplementary Table 1) was 9%.
Consider `C[C@@H]1Cc2c([nH]c3ccccc23)[C@@H](c2c(F)cc(/C=C/C(=O)O)cc2F)N1CC(C)(C)F` [AZD9496], for which the “Necrosis induction [NI]” value with HEK293T cells [1] (1 µM) is 1.09 and 0.96 and 0.78 and 2.03. Moreover, the “VP16 control [fold reporter gene activity]” value in the data set on Gal4-VP16 (1 µM) was 1.31 fold reporter gene activity and 1.10 fold reporter gene activity and 1.59 fold reporter gene activity. Further, the ΔTm at 20 µM on GSK3B was 0 °C; on BRPF1, -4.53 °C. Also, the “effects on growth-rate, metabolic activity and necrosis” value in the data set with HEK293T cells [2] is “without relevant effects”. In addition, in the data set with NR3A1 (ERα), the IC50 was 0.28 ± 0.04 nM.
With `COc1ccc(-c2coc3cc(O)cc(O)c3c2=O)cc1` [Biochanin A], the “Mean ΔTM GSK3B” value on GSK3B is on record as -0.89 K. In addition, the “Mean ΔTM BRPF1” value at BRPF1 is listed as 2.98 K.
`CCCC1O[C@@H]2C[C@H]3[C@@H]4CCC5=CC(=O)C=C[C@]5(C)[C@H]4[C@@H](O)C[C@]3(C)[C@]2(C(=O)CO)O1` (some centres unmarked) [Budesonide]: the ΔTm at 20 µM at GSK3B was -0.4 °C; on BRPF1, -1.04 °C. In addition, the “effects on growth-rate, metabolic activity and necrosis” value in the data set with HEK293T cells [2] was “without relevant effects”.
Turning to `CCN(CC)c1ccc(/C=N/NC(=O)c2ccc(O)cc2)cc1` [DY131], the “Necrosis induction [NI]” value in the data set on HEK293T cells [1] (3 µM) was 0.73 and 0.89 and 0.91 and 0.92. Besides, the “VP16 control [fold reporter gene activity]” value with Gal4-VP16 (3 µM) is 1.12 fold reporter gene activity and 1.24 fold reporter gene activity and 1.20 fold reporter gene activity. Moreover, the ΔTm at 20 µM at GSK3B was -0.28 °C; on BRPF1, 1.09 °C.
Take `CC/C(=C(/CC)c1ccc(O)cc1)c1ccc(O)cc1` [Diethylstilbestrol]: the “Necrosis induction [NI]” value in the data set with HEK293T cells [1] (0.3 µM) is 0.86 and 0.98 and 1.34; in the data set on HEK293T cells [1] (3 µM), 0.69 and 0.58 and 0.64 and 0.72. Further, the ΔTm at 20 µM at GSK3B is -3.54 °C; at BRPF1, -8.49 °C. For the same compound, in the data set on HEK293T cells [2] (0.3 µM), the “Cytotoxicity in HEK293T cells” value is given as “non-toxic”.
On to `Cc1ccc2c(NC[C@](O)(CC(C)(C)c3cc(F)cc4c3OCC4)C(F)(F)F)cccc2n1` [Mapracorat], for which, in the data set with HEK293T cells [1] (1 µM), the “Necrosis induction [NI]” value is 1.18 and 1.03 and 0.88 and 0.99. For the same compound, the “VP16 control [fold reporter gene activity]” value with Gal4-VP16 (1 µM) was 0.84 fold reporter gene activity and 0.88 fold reporter gene activity and 1.01 fold reporter gene activity. Besides, the ΔTm at 20 µM was -0.25 °C on GSK3B and 0.63 °C on BRPF1.
Consider `CC#C[C@]1(O)CC[C@H]2[C@@H]3CCC4=CC(=O)CCC4=C3[C@@H](c3ccc(N(C)C)cc3)C[C@@]21C` [Mifepristone], for which, in the data set with HEK293T cells [1] (3 µM), the “Necrosis induction [NI]” value was 1.14 and 0.95 and 0.92 and 0.99. The ΔTm at 20 µM on GSK3B is -1.3 °C; on BRPF1, -2.63 °C.
In the case of `COc1cc(/C=C(\C#N)C(=O)Nc2nnc(C(F)(F)F)s2)ccc1OCc1ccc(C(F)(F)F)cc1C(F)(F)F` [XCT790], the “Necrosis induction [NI]” value in the data set on HEK293T cells [1] (1 µM) was 0.92 and 0.82 and 0.84 and 0.79. In addition, the “VP16 control [fold reporter gene activity]” value in the data set with Gal4-VP16 (1 µM) was 1.11 fold reporter gene activity and 0.95 fold reporter gene activity and 0.91 fold reporter gene activity. In addition, the ΔTm at 20 µM at GSK3B was -0.62 °C; at BRPF1, -1.02 °C.
As to `C/C=C1\C(=O)C[C@H]2[C@@H]3CCC4=CC(=O)CC[C@]4(C)[C@H]3CC[C@]12C` [Z-Guggulsterone], at GSK3B, the “Mean ΔTM GSK3B” value was -1.05 K. For the same compound, on BRPF1, the “Mean ΔTM BRPF1” value was -1.36 K.
